Source: patent US10537521B2 (priority 2016, dated 2020)
Values joined by “and” are separate entries in the source; they are usually repeats but may differ in a detail not shown here. Equal values may be shown once. Where a name gives a salt, the structure may show the parent alone. Read-outs that look alike come from different tables or passages of the source.

What was measured:
[1] = Example 1: multiple-dose randomized 3-way crossover PK study of two IV tramadol regimens vs 100 mg oral q6h; conditions: human, plasma, plasma
Method: A fitted curve was obtained because the second oral peak was not measured in the study. For the modeling portion of the analysis, a validated Phoenix® WinNonlin® program version 6.4 (Certara) was used for PK analysis, simulation, graphics, tables and statistical calculations. […] For purposes of nonlinear regression, the data were weighted as 1/observed. Predicted concentration-time data were calculated based on the individual fitted PK parameters.

[2] = tramadol single […] [100 mg] p.o., humans N=12 male; cited from earlier work
[3] = cited from earlier work; for CL/F (total clearance): humans n=10 male
[4] = Example 4: multiple dose steady-state dose proportionality study, tramadol injection 50/100 mg IV and Ultram tablet 50/100 mg oral q6h; format: in vivo, human; conditions: for Cmax, tramadol, Mean ± SD / Cmin, tramadol, Mean ± SD / Tmax, tramadol, Mean ± SD: steady-state, healthy volunteers
Method: The study was an open-label, single-period, randomized, parallel treatment design. Subjects received study drug every 6 hours beginning on the morning of Day 1 and ending on the morning of Day 3. The first dose on Day 1 and the last dose on Day 3 were administered after a minimum 10 hour fast.

rats and dogs = conditions: repeat-dose toxicity; cited from earlier work
[5] = tested on: experienced opioid abusers; conditions: cited from earlier work
[6] = after oral administration; cited from earlier work
[7] = loading doses up to 150 mg IV, postoperative; cited from earlier work
[8] = standard in vitro and in vivo studies; cited from earlier work
[9] = cited from earlier work
mice and rats = conditions: cited from earlier work
[10] = tested on: patients undergoing abdominal surgery; conditions: cited from earlier work
[11] = Tramadol dosed as 50 mg IV every 6 hours
[12] = Tramadol dosed as 100 mg IV every 6 hours
[13] = Tramadol dosed as Oral (Ultram tablet) every 6 hours

**Q.** Which Cmax ([1]; iv, 75 mg, Cmax(42-48), 75 mg IV regimen (h 0, 3, 6, then q6h to h 42), steady-state, mean) does the source give for `COc1cccc([C@]2(O)CCCC[C@H]2CN(C)C)c1` (racemic) [Tramadol, (±)cis-2-[(dimethylamino)methyl]-1-(3-methoxyphenyl) cyclohexanol hydrochloride] here?
**A.** 827 ng/mL

**Q.** And the Cmax ([1]; iv, 75 mg, Cmax, 75 mg IV regimen (h 0, 3, 6, then q6h to h 42), mean)?
**A.** 932 ng/mL

**Q.** What about the Tmax ([1]; iv, 75 mg, Tmax(0-3), 75 mg IV regimen (h 0, 3, 6, then q6h to h 42), mean) of the same compound?
**A.** 0.5 h

**Q.** And the Tmax ([1]; iv, 75 mg, Tmax(3-6), 75 mg IV regimen (h 0, 3, 6, then q6h to h 42), mean)?
**A.** 3.31 h

**Q.** And the Tmax ([1]; iv, 75 mg, Tmax(42-48), 75 mg IV regimen (h 0, 3, 6, then q6h to h 42), mean)?
**A.** 42.4 h

**Q.** What about the Tmax ([1]; iv, 75 mg, Tmax, 75 mg IV regimen (h 0, 3, 6, then q6h to h 42), mean) of the same compound?
**A.** 15.9 h

**Q.** And the AUC(0-t) ([1]; po, 100 mg, AUC0-24, 100 mg oral q6h to h 42, mean)?
**A.** 7490 ng·h/mL

**Q.** What about the AUC(0-t) ([1]; po, 100 mg, AUC0-48, 100 mg oral q6h to h 42, mean) of the same compound?
**A.** 19100 ng·h/mL

**Q.** What about the AUC ([1]; po, 100 mg, AUC24-48, 100 mg oral q6h to h 42, mean) of the same compound?
**A.** 11600 ng·h/mL

**Q.** And the AUC ([1]; po, 100 mg, AUCtau 1, 100 mg oral q6h to h 42, first dosing interval, mean)?
**A.** 1490 ng·h/mL

**Q.** What about the AUC ([1]; po, 100 mg, AUCtau n, 100 mg oral q6h to h 42, last dosing interval, mean) of the same compound?
**A.** 3480 ng·h/mL

**Q.** And the concentration at 6 h ([1]; po, 100 mg, C6, 100 mg oral q6h to h 42, mean)?
**A.** 197 ng/mL

**Q.** And the concentration at 48 h ([1]; po, 100 mg, C48 (T48), 100 mg oral q6h to h 42, mean)?
**A.** 497 ng/mL

**Q.** And the concentration at 1 h ([1]; po, 100 mg, C1 h, 100 mg oral q6h to h 42, mean)?
**A.** 278 ng/mL

**Q.** And the Cmax ([1]; po, 100 mg, Cmax(0-6), 100 mg oral q6h to h 42, first dose, mean)?
**A.** 377 ng/mL

**Q.** What about the Cmax ([1]; po, 100 mg, Cmax(42-48), 100 mg oral q6h to h 42, steady-state, mean) of the same compound?
**A.** 701 ng/mL

**Q.** What about the Cmax ([1]; po, 100 mg, Cmax, 100 mg oral q6h to h 42, mean) of the same compound?
**A.** 701 ng/mL

**Q.** What about the Tmax ([1]; po, 100 mg, Tmax(0-6), 100 mg oral q6h to h 42, mean) of the same compound?
**A.** 1.54 h

**Q.** And the Tmax ([1]; po, 100 mg, Tmax(42-48), 100 mg oral q6h to h 42, mean)?
**A.** 44 h

**Q.** And the Tmax ([1]; po, 100 mg, Tmax, 100 mg oral q6h to h 42, mean)?
**A.** 44 h

**Q.** What about the AUC [2] of the same compound?
**A.** 2177 ± 722 ng·h/mL

**Q.** What about the Cmax [2] of the same compound?
**A.** 274 ± 75 ng/mL

**Q.** What about the Tmax [2] of the same compound?
**A.** 1.6 ± 0.5 h

**Q.** And the t1/2 [2]?
**A.** 5.9 ± 0.7 h

**Q.** What about the “absolute bioavailability of the oral dose” value ([3]; 100 mg PO vs IV, based on AUC values, hydrochloride) of the same compound?
**A.** 68±13% and 68%

**Q.** What about the first pass metabolism ([3]; 100 mg PO, estimated) of the same compound?
**A.** ~20%

**Q.** What about the “estimated absorption of the oral dose” value ([3]; 100 mg PO) of the same compound?
**A.** 86-88%

**Q.** What about the “CL/F (total clearance)” value ([3]; 100 mg i.v., hydrochloride) of the same compound?
**A.** 467 ± 124 mL/min

**Q.** And the “CL/F (total clearance)” value ([3]; 100 mg i.v., listed as tramadol, hydrochloride)?
**A.** 710 ± 174 mL/min

**Q.** What about the “time to peak serum concentration (tmax)” value ([3]; 100 mg oral dosing) of the same compound?
**A.** approximately 2 hours

**Q.** And the “CL/F (total clearance)” value ([3]; 100 mg p.o., hydrochloride)?
**A.** 710 ± 174 mL/min

**Q.** And the “CL/F (total clearance)” value ([3]; 100 mg p.o., listed as tramadol, hydrochloride)?
**A.** 467 ± 124 mL/min

**Q.** And the “Cmax, tramadol, Mean ± SD” value [4, 11]?
**A.** 541 ± 126 ng/mL

**Q.** And the “Cmin, tramadol, Mean ± SD” value [4, 11]?
**A.** 203 ± 50 ng/mL

**Q.** What about the “Tmax, tramadol, Mean ± SD” value [4, 11] of the same compound?
**A.** 0.375 ± 0.189 h

**Q.** And the “Cmin, tramadol, Mean ± SD” value ([4]; Tramadol dosed as 50 mg Oral (Ultram tablet) every 6 hours)?
**A.** 213 ± 93 ng/mL

**Q.** And the “Cmax, tramadol, Mean ± SD” value [4, 12]?
**A.** 1250 ± 236 ng/mL

**Q.** What about the “Cmin, tramadol, Mean ± SD” value [4, 12] of the same compound?
**A.** 539 ± 172 ng/mL

**Q.** And the “Tmax, tramadol, Mean ± SD” value [4, 12]?
**A.** 0.406 ± 0.442 h

**Q.** And the “Cmax, tramadol, Mean ± SD” value [4, 13]?
**A.** 703 ± 210 ng/mL

**Q.** And the “Cmin, tramadol, Mean ± SD” value [4, 13]?
**A.** 405 ± 151 ng/mL

**Q.** And the AUC ([4]; human, plasma, iv, 50 mg)?
**A.** 1970 ± 453 ng·h/mL

**Q.** What about the AUC(0-inf) ([4]; human, plasma, iv, 50 mg) of the same compound?
**A.** 4040 ± 1060 ng·h/mL

**Q.** And the AUC(0-t) ([4]; human, plasma, iv, 50 mg)?
**A.** 4010 ± 1050 ng·h/mL

**Q.** What about the AUC ([4]; human, plasma, iv, 100 mg) of the same compound?
**A.** 4730 ± 1240 ng·h/mL

**Q.** And the AUC(0-inf) ([4]; human, plasma, iv, 100 mg)?
**A.** 11400 ± 4540 ng·h/mL

**Q.** And the AUC(0-t) ([4]; human, plasma, iv, 100 mg)?
**A.** 11200 ± 4270 ng·h/mL

**Q.** And the AUC(0-inf) ([4]; human, plasma, po, 50 mg)?
**A.** 4450 ± 2110 ng·h/mL

**Q.** What about the AUC(0-t) ([4]; human, plasma, po, 50 mg) of the same compound?
**A.** 4360 ± 2030 ng·h/mL

**Q.** And the Cmax ([4]; human, plasma, po, 50 mg)?
**A.** ~368 ng/mL

**Q.** What about the AUC(0-t) ([4]; human, plasma, po, 100 mg) of the same compound?
**A.** 8660 ± 4260 ng·h/mL

**Q.** What about the “doses with behavioral/clinical signs and convulsions” value (rats and dogs) of the same compound?
**A.** > 25 mg/kg/day

**Q.** And the seizure ([5]; 200 mg IV administered over 5 minutes)?
**A.** No seizures were observed

**Q.** What about the seizure ([5]; 300 mg IV delivered over 2.5 minutes) of the same compound?
**A.** seizure was observed

**Q.** What about the seizure ([5]; 700 mg IV administered over 1 minute) of the same compound?
**A.** seizure was observed

**Q.** What about the “ratings of “liking”” value ([5]; tramadol 100 and 200 mg IV, morphine 10 and 20 mg IV, over 5 minutes, 10 experienced opioid abusers) of the same compound?
**A.** neither dose of tramadol increased ratings

**Q.** And the “ratings of “feel drug effect” compared to placebo” value ([5]; tramadol 100 and 200 mg IV, morphine 10 and 20 mg IV, over 5 minutes)?
**A.** significantly increased

**Q.** What about the “ratings on the ARCI-MBG scale” value ([5]; tramadol 100 and 200 mg IV, morphine 20 mg IV) of the same compound?
**A.** neither dose of tramadol increased ratings

**Q.** What about the “fertility or teratogenic effects” value [6] of the same compound?
**A.** no safety concerns

**Q.** And the serious adverse effects [7]?
**A.** not associated with any serious adverse effects

**Q.** What about the genotoxic potential [8] of the same compound?
**A.** no evidence of genotoxic potential

**Q.** What about the absolute bioavailability ([9]; oral, continuous dosing (Liao et al., 1992)) of the same compound?
**A.** 90-100%

**Q.** What about the “increase of elimination half-life” value ([9]; subjects with renal or hepatic impairment) of the same compound?
**A.** approximately 2 fold

**Q.** And the carcinogenic potential (mice and rats)?
**A.** no evidence of carcinogenic potential

**Q.** What about the “patients reporting adverse events” value ([10]; both groups (infusion and bolus)) of the same compound?
**A.** 25%

**Q.** And the “effects on blood pressure or heart rate” value ([10]; infusion and bolus groups)?
**A.** no significant effects
